Source: patent US8084621B2, “3-Pyrrolo[b]cyclohexylene-2-dihydroindolinone derivatives and uses thereof” (Jiangsu Simcere Pharmaceutical R&D Co. Ltd., priority 2006, dated 2011)

Experiments:
VEGFR-2 = biological target: T1, VEGFR-2 (Homo sapiens, UniProt P35968); assay: Protein kinase activity by ELISA in vitro, VEGFR-2; type: biochemical; conditions: read-out: IC50 of the VEGF Receptor Kinase
T1 construct: purchased Cell Signaling Technology CO
Procedure: An ELISA (Enzyme-Linked Immunosorbent Sandwich Assay) procedure may be used to detect and measure the level of protein tyrosine kinase activity. […] According to the principle of ELISA, a monoclonal antibody can react with phosphorylated substrate specially, so biotin-labeled substrate is binded to streptavidin-coated ELISA plate, and then binded to a HRP-labeled goat anti-mouse antibody. Finally TMB is added for a color reaction and the value of A450-A630 is read by ELISA plate reader. The OD value can reflect the inhibitory activity of the VEGFR-2, PDGFR-β, c-Kit tyrosine kinases etc. treated with the test compounds at the different concentrations. So, the assay may be used to measure the inhibition ratio of the compounds for the tyrosine kinase activity. Similar assays can be designed along the same lines for any PK using techniques well known in the art.
According to the principle of ELISA, a monoclonal antibody can react with phosphorylated substrate specially, so biotin-labeled substrate is binded to streptavidin-coated ELISA plate, and then binded to a HRP-labeled goat anti-mouse antibody. Finally TMB is added for a color reaction and the value of A450-A630 is read by ELISA plate reader. The OD value can reflect the inhibitory activity of the VEGFR-2, PDGFR-β c-Kit tyrosine kinases treated with the test compounds at the different concentrations. So, the assay may be used to measure the inhibition ratio of the compounds for the tyrosine kinase activity. Similar assays can be designed along the same lines for any PK using techniques well known in the art.
VEGF Receptor 2, PDGF Receptor-beta and c-kit kinase assay kit (include kinase, 1.25M DTT, substrate peptide, 10 mM ATP, P-Tyr-100 Mouse antibody, 4×HTScan tyrosine kinase buffer), Cell Signaling Technology CO.; HRP labeled goat anti mouse IgG, Protein Tech CO.; TMB, Pierce CO.; Streptavidin Microtitration Plate, Greiner Bio-one CO.; Infinite M200 Reader, Tecan CO.
1.2.1 Immediately transfer enzyme from −80° C. to ice. Allow enzyme to thaw on ice then at 4° C. and centrifugate transiently to the bottom of centrifuge tube, then lay back on ice quickly
1.2.2 Add 10 μl of DTT (1.25 M) to 2.5 ml of 4×HTScan tyrosine kinase buffer (240 mM HEPES pH 7.5, 20 mM MgCl2, 20 mM MnCl2, 12 μM Na3VO4). Transfer 0.6 ml of DTT/Kinase buffer to each enzyme tube to make 4× reaction Cocktail. Incubate 12.5 μl of the 4× reaction cocktail with 12.5 μl/well prediluted compound of interest for 5 minutes at room temperature, and set blank control, free-enzyme control, negative control and positive control. 1.2.3 Add 10 μl 10 mM ATP to 1.25 ml 6 μM substrate peptide. Dilute the mixture with dH20 to 2.5 ml to make 2×ATP/substrate cocktail. Add 25 μl of 2×ATP/substrate cocktail to 25 μl/well preincubated reaction cocktail/compound. Incubate reaction plate at room temperature for 30 minutes. 1.2.4 Add 50 μl/well stop Buffer (50 mM EDTA, pH 8) to stop the reaction. Transfer 25 μl of each reaction and 75 μl dH2O/well to a 96-well streptavidin coated plate and incubate at room temperature for 60 minutes. Wash three times with 200 μl/well PBS/T(1×PBS, 0.05% Tween-20). 1.2.5 Dilute primary antibody, Phospho-Tyrosine mAb (P-Tyr-100), 1:500 in PBS/T with 1% BSA. Add 100 μl/well primary antibody. Incubate at room temperature for 60 minutes. Wash three times with 200 μl/well PBS/T(1×PBS, 0.05% Tween-20). 1.2.6 Prepare appropriate dilution of HRP labeled secondary antibody, 1:500 in PBS/T with 1% BSA. Add 100 μl/well secondary antibody solution. Incubate at room temperature for 30 minutes. Wash five times with 200 μl/well PBS/T 1.2.7 Add 100 μl/well TMB substrate and incubate at room temperature for 1-10 minutes. Add 50 μl 2M H2SO4 to stop the color reaction. Read the absorbance of A450-A630 with the Infinite M200 microtiter plate reader. 1.2.8 Calculate the inhibition ratio with the following formula: […]

[1] = system: Human Colon Cancer Cell Line (HT-29); assay: Tumor cell proliferation assay (MTT), HT29; type: cell-based; conditions: for inhibition at 10 µM: concentration of 10^−5 mol/L, preliminary screening, 72 hours, read-out: Inhibition rate % HT29; for IC50: secondary screening, 48 hours
Source text: (§1) The assay used generally is the blue tetrazolium bromide (MTT) method. […] The amount of formazan can be detected by the microplate reader through the absorption value at 570 nm. The amount of formazan product generated is proportional to the number of living cells in the sample, so the OD value may reflect the number of living cells and the ability of a test drug to inhibit or kill cells. The MTT assay may be used in determining the ability of different compounds of the present invention to inhibit one or more cancer cells proliferation. Similar assays can be designed along the same lines for any cancer cell using techniques well known in the art.
(§2) The assay used generally is the blue tetrazolium bromide (MTT) method. […] Intracellular purple formazan salt crystals can be solved in DMSO and the absorption value at 570 nm is detected by the microplate reader, then the number of living cells can be detected indirectly. So MTT assay may be used to determine the ability of a compound of the present invention to inhibit cell proliferation. Similar assays can be designed along the same lines for any cancer cell using techniques well known in the art.
2.2.11 Human Colon Cancer Cell Line (HT-29);
(§3) The cells of 2.2.11, 2.2.12, 2.2.13 were cultured in MC COYS 5-A medium containing 12% fetal bovine serum in the condition of 37° C., 5% CO2.
(§4) 2.3.1 Cell seeding: Trypsinize the cell by 0.05% trypsin-EDTA and add RPMI 1640 medium (DMEM or 5A) containing 12% calf serum. Count the number, then dilute to 1.67×10^4/ml. Add 180 ul/well to the 96 well plate (3000 cells/well).
(§5) 2.3.2 Culture: cells are incubated for 24 hours at 37° C. under 5% CO2.
(§6) 2.3.3 Preliminary screening: The compounds are firstly diluted to 0.1 mol/L with DMSO, and then diluted to three concentrations of 10^−5 mol/L, 10^−6 mol/L and 10^−7 mol/L. Add 20 ul test compounds to the 96 well plate and incubate for 72 hours. Each group has three parallel wells and all experiments repeat three times. Each inhibition ratio is calculated, then an average value of three times is taken as the measured value. 2.3.4 Staining 2.3.4.1 Attached cell: add 20 ul/well MTT to the 96-well plates; incubate for 4 hours in the incubator. Pour out the culture medium in the well and add 100 ul/well DMSO. Shake the plate for 5 min. 2.3.4.2 Suspension cell: add 20 ul/well MTT to the 96-well plates; incubate for 4 hours in the incubator. Add 50 ul/well 20% SDS and incubate for overnight in the incubator. 2.3.5 Reading the plates: read the absorbance A570-A630 with the Infinite M200 microtiter plate reader. Calculate the inhibition ratio of the test compounds. […] Dilute these compounds to ten concentrations: 10^−5 mol/L, 0.5×10^−5 mol/L, 10^−6 mol/L, 0.8×10^−6 mol/L, 0.6×10^−6 mol/L, 0.4×10^−6 mol/L, 0.2×10^−6 mol/L, 10^−7 mol/L, 0.8×10^−7 mol/L and 0.4×10^−7 mol/L. Add 20 ul test compound solution to the 96 well plate and incubate for 48 hours. Each group has three parallel wells and all experiments repeat for three times. Read the plates and calculate the inhibition ratio according to the preliminary screening method. 2.3.7 Calculate the Inhibition Ratio of Cell Proliferation and the IC50
(§7) According to the inhibition ratio of cell proliferation at the different concentrations of the compound, inhibition ratio of 50% of the test compound is calculated through the logarithm of the concentration of the compound with the Logit [I] linear regression, and an average value of three times is taken as the measured value of a sample.

[2] = system: Human Gastric Cancer Cell Line (BGC); assay: Tumor cell proliferation assay (MTT), BGC; type: cell-based; conditions: for inhibition at 10 µM: concentration of 10^−5 mol/L, preliminary screening, 72 hours, read-out: Inhibition rate % BGC; for IC50: secondary screening, 48 hours
Source text: as §1, §2
2.2.1 Human Gastric Cancer Cell Line (BGC)
(§8) The cells of the 2.2.1, 2.2.2, 2.2.3, 2.2.4, 2.2.5 cultured with RPMI 1640 containing 12% calf serum in the condition of 37° C., 5% CO2.
as §4, §5
(§9) 2.3.3 Preliminary screening: The compounds are firstly diluted to 0.1 mol/L with DMSO, and then diluted to three concentrations of 10^−5 mol/L, 10^−6 mol/L and 10^−7 mol/L. Add 20 ul test compounds to the 96 well plate and incubate for 72 hours. Each group has three parallel wells and all experiments repeat three times. Each inhibition ratio is calculated, then an average value of three times is taken as the measured value. 2.3.4 Staining 2.3.4.1 Attached cell: add 20 ul/well MTT to the 96-well plates; incubate for 4 hours in the incubator. Pour out the culture medium in the well and add 100 ul/well DMSO. Shake the plate for 5 min. 2.3.4.2 Suspension cell: add 20 ul/well MTT to the 96-well plates; incubate for 4 hours in the incubator. Add 50 ul/well 20% SDS and incubate for overnight in the incubator. 2.3.5 Reading the plates: read the absorbance A570-A630 with the Infinite M200 microtiter plate reader. Calculate the inhibition ratio of the test compounds. 2.3.6 Secondary screening: the compounds whose inhibition ratio is greater than 50% at the concentrations of 10^−5 mol/L in the preliminary screening will be picked out for Secondary screening. Dilute these compounds to ten concentrations: 10^−5 mol/L, 0.5×10^−5 mol/L, 10^−6 mol/L, 0.8×10^−6 mol/L, 0.6×10^−6 mol/L, 0.4×10^−6 mol/L, 0.2×10^−6 mol/L, 10^−7 mol/L, 0.8×10^−7 mol/L and 0.4×10^−7 mol/L. Add 20 ul test compound solution to the 96 well plate and incubate for 48 hours. Each group has three parallel wells and all experiments repeat for three times. Read the plates and calculate the inhibition ratio according to the preliminary screening method. 2.3.7 Calculate the Inhibition Ratio of Cell Proliferation and the IC50
as §7

[3] = system: Human Pancreatic Carcinoma Cell Line (BXPC-3); assay: Tumor cell proliferation assay (MTT), BXPC-3; type: cell-based; conditions: for inhibition at 10 µM: concentration of 10^−5 mol/L, preliminary screening, 72 hours, read-out: Inhibition rate % BXPC-3; for IC50: secondary screening, 48 hours
Source text: as §1, §2
2.2.6 Human Pancreatic Carcinoma Cell Line (BXPC-3);
The cells of 2.2.6, 2.2.7 cultured in RPMI 1640 medium containing 12% fetal bovine serum in the condition of 37° C., 5% CO2.
as §4, §5, §6, §7

[4] = system: Human Ovarian Cancer Cell Line (SK-OV-3); assay: Tumor cell proliferation assay (MTT), SK-OV-3; type: cell-based; conditions: for inhibition at 10 µM: concentration of 10^−5 mol/L, preliminary screening, 72 hours, read-out: Inhibition rate % SK-OV-3; for IC50: secondary screening, 48 hours
Source text: as §1, §2
2.2.13 Human Ovarian Cancer Cell Line (SK-OV-3).
as §3, §4, §5, §9, §7

[5] = system: Human Small Cell Lung Cancer Cell Line (NCI-H446); assay: Tumor cell proliferation assay (MTT), NCI-H446; type: cell-based; conditions: for inhibition at 10 µM: concentration of 10^−5 mol/L, preliminary screening, 72 hours, read-out: Inhibition rate % NCI-H446; for IC50: secondary screening, 48 hours
Source text: as §1, §2
2.2.5 Human Small Cell Lung Cancer Cell Line (NCI-H446)
as §8, §4, §5, §9, §7

T1 sequence (P35968 20-1356): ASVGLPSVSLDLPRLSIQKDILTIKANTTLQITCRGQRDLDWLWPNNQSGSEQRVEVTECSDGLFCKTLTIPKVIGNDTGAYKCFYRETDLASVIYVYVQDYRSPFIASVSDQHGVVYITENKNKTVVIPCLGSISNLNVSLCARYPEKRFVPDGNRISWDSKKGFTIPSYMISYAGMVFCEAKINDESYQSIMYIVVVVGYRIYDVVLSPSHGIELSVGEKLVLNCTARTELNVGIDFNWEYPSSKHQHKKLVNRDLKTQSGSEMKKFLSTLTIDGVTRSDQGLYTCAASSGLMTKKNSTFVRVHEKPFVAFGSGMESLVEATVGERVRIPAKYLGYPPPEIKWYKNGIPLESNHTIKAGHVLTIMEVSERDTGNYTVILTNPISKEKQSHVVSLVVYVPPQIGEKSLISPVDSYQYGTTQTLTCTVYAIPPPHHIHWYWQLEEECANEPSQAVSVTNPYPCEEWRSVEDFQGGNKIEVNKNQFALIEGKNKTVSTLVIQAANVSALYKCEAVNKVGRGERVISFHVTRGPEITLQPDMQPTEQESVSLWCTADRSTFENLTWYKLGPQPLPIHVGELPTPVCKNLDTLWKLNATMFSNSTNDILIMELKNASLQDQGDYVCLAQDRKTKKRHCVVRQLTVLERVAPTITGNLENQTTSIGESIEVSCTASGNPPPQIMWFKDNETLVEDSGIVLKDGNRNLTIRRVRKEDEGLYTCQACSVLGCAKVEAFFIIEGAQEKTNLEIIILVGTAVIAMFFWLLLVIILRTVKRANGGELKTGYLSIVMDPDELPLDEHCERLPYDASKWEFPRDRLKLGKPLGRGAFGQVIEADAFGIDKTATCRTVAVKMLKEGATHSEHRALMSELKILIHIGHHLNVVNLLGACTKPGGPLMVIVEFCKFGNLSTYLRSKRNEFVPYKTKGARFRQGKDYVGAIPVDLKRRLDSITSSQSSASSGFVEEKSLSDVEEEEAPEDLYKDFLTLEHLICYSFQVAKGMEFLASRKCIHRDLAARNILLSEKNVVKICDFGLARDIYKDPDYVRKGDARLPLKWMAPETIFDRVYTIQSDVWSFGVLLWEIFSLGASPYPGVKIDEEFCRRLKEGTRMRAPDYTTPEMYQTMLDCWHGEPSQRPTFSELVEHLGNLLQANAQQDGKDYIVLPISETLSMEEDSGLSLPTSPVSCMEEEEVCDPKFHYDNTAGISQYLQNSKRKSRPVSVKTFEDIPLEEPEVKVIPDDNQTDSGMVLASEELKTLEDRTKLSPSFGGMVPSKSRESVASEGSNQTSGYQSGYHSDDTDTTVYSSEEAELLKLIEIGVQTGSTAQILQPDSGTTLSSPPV

Row | SMILES | IC50 (VEGFR-2) [nM] | inhibition at 10 µM [1] [%] | IC50 [1] [nM] | inhibition at 10 µM [2] [%] | IC50 [2] [nM] | inhibition at 10 µM [3] [%] | IC50 [3] [nM] | inhibition at 10 µM [4] [%] | IC50 [4] [nM] | inhibition at 10 µM [5] [%] | IC50 [5] [nM]
1 | CCN(CC)CCNC(=O)c1c(C)[nH]c2c1CCC/C2=C1/C(=O)Nc2ccc(OC)cc21 [I-53, N-(2-(diethylamino)ethyl)-2-methyl-7-[1,2-dihydro-5-methoxy-2-oxo-3H-indol-(Z)-3-ylidene]-4,5,6,7-tetrahydro-1H-indole-3-carboxamide] | 13 | – | – | – | – | – | – | – | – | – | –
2 | CCN(CC)CCNC(=O)c1c(C)[nH]c2c1CCC/C2=C1/C(=O)Nc2cccc(F)c21 [I-49, N-(2-(diethylamino)ethyl)-2-methyl-7-[1,2-dihydro-4-fluoro-2-oxo-3H-indol-(Z)-3-ylidene]-4,5,6,7-tetrahydro-1H-indole-3-carboxamide] | 12 | – | – | – | – | – | – | – | – | – | –
3 | Cc1[nH]c2c(c1C(=O)N(C)CCN(C)C)CCC/C2=C1/C(=O)Nc2ccc(F)cc21 [I-57, N-(2-(dimethylamino)ethyl)-N,2-dimethyl-7-[1,2-dihydro-5-fluoro-2-oxo-3H-indol-(Z)-3-ylidene]-4,5,6,7-tetrahydro-1H-indole-3-carboxamide] | 13 | – | – | – | – | – | – | – | – | – | –
4 | Cc1[nH]c2c(c1C(=O)NCC(O)CN(C)C)CCC/C2=C1/C(=O)Nc2ccc(F)cc21 (centres unmarked) [I-66, N-(3-(dimethylamino)-2-hydroxypropyl)-2-methyl-7-[1,2-dihydro-5-fluoro-2-oxo-3H-indol-(Z)-3-ylidene]-4,5,6,7-tetrahydro-1H-indole-3-carboxamide] | – | 93 | 2890 | 76.8 | 4660 | 97.9 | 3190 | 85.1 | 3170 | 88.7 | 3030
5 | CCN(CC)CC(O)CNC(=O)c1c(C)[nH]c2c1CCC/C2=C1/C(=O)Nc2ccc(F)cc21 (centres unmarked) [I-64, N-(3-(diethylamino)-2-hydroxypropyl)-2-methyl-7-[1,2-dihydro-5-fluoro-2-oxo-3H-indol-(Z)-3-ylidene]-4,5,6,7-tetrahydro-1H-indole-3-carboxamide] | – | 96.6 | 1300 | 84.7 | 2210 | 98.5 | 1290 | 93.5 | 2240 | 98.1 | 2050
